Measured values as given in ChEMBL document CHEMBL6074662, “Antibacterial, Antibiofilm, and Anti-inflammatory Effects of a Novel Thrombin-Derived Peptide in Sepsis Models: Insights into Underlying Mechanisms” (J Med Chem, 2024).
The source made the active and inactive calls. No cut-off for these calls is given here.

Key:
[1] = tested on: RAW264.7; test: Anti-inflammatory activity in mouse RAW264.7 cells assessed as decrease in LPS-induced ROS production at 5 uM pretreated for 1 hr followed by LPS treatment for 16 hrs by DCFDA staining based analysis relative to control; format: functional
[2] = tested on: Acinetobacter baumannii; test: Antibacterial activity against multidrug-resistant Acinetobacter baumannii 329-97 incubated for 24 hrs by CLSI based broth microdilution method; format: functional
[3] = Effect on secondary structure of drug in PBS assessed as formation of random coil structure at 150 uM by CD analysis; format: physicochemical; details: buffer
[4] = tested on: Pseudomonas aeruginosa; test: Synergistic antibacterial activity against multi-drug resistant Pseudomonas aeruginosa CCARM 2095 incubated for 24 hrs in presence of Chloramphenicol by broth microdilution method; format: functional
[5] = tested on: Pseudomonas aeruginosa; test: Antibacterial activity against multidrug-resistant Pseudomonas aeruginosa CCARM 2095 incubated for 24 hrs by CLSI based broth microdilution method; format: functional
[6] = tested on: Pseudomonas aeruginosa; test: Synergistic antibacterial activity against multi-drug resistant Pseudomonas aeruginosa CCARM 2095 assessed as fractional inhibitory concentration index by measuring ratio of MIC of compound in presence of Chloramphenicol to MIC to compound incubated for 24 hrs by broth microdilution method; format: functional
[7] = tested on: RAW264.7; test: Anti-inflammatory activity in mouse RAW264.7 cells assessed as decrease in LPS-induced TNF-alpha level at 2.5 uM pretreated for 1 hr followed by LPS treatment for 16 hrs by ELISA relative to control; format: functional; details: time 17 hrs
[8] = tested on: Acinetobacter baumannii; test: Antibacterial activity against carbapenem-resistant Acinetobacter baumannii CCARM 12005 incubated for 24 hrs by CLSI based broth microdilution method; format: functional
[9] = Effect on secondary structure of drug in LPS assessed as fold increase in formation of alpha-helical conformation at 150 uM by CD analysis relative to HVF18; format: physicochemical
[10] = tested on: Staphylococcus epidermidis; test: Antibacterial activity against Staphylococcus epidermidis KCTC 1917 incubated for 24 hrs by CLSI based broth microdilution method; format: functional
[11] = tested on: Staphylococcus aureus; test: Synergistic antibacterial activity against methicillin-resistant Staphylococcus aureus CCARM 3089 assessed as fractional inhibitory concentration index incubated for 24 hrs in presence of Oxacillin by broth microdilution method; format: functional
[12] = Hemolytic activity in sheep RBC incubated for 1 hr by absorbance based assay; format: toxicity, cell-based, Ovis aries; details: erythrocyte
[13] = tested on: Escherichia coli; test: Antibacterial activity against Escherichia coli KCTC 1682 incubated for 24 hrs in presence of NH4Cl by CLSI based broth microdilution method; format: functional
[14] = tested on: Pseudomonas aeruginosa; test: Anti-biofilm activity against multi-drug resistant Pseudomonas aeruginosa CCARM 2095 assessed as increase in red-stained dead cells at 32 uM incubated for 12 hrs by SYTO9/PI staining based analysis; format: functional, organism-based
[15] = tested on: Pseudomonas aeruginosa; test: Synergistic antibacterial activity against multi-drug resistant Pseudomonas aeruginosa CCARM 2095 assessed as fractional inhibitory concentration index incubated for 24 hrs in presence of Chloramphenicol by broth microdilution method; format: functional
[16] = tested on: Staphylococcus aureus; test: Antibacterial activity against methicillin-resistant Staphylococcus aureus CCARM 3095 incubated for 24 hrs by CLSI based broth microdilution method; format: functional
[17] = tested on: Staphylococcus aureus; test: Synergistic antibacterial activity against methicillin-resistant Staphylococcus aureus CCARM 3089 assessed as fractional inhibitory concentration index by measuring ratio of MIC of compound in presence of Ciprofloxacin to MIC to compound incubated for 24 hrs by broth microdilution method; format: functional
[18] = tested on: Pseudomonas aeruginosa; test: Synergistic antibacterial activity against multi-drug resistant Pseudomonas aeruginosa CCARM 2095 assessed as fractional inhibitory concentration index by measuring ratio of MIC of Chloramphenicol in presence of compound to MIC to Chloramphenicol incubated for 24 hrs by broth microdilution method; format: functional
[19] = tested on: Escherichia coli; test: Antibacterial activity against Escherichia coli KCTC 1682 incubated for 24 hrs in presence of MgCl2 by CLSI based broth microdilution method; format: functional
[20] = Hemolytic activity in sheep RBC at 256 uM incubated for 1 hr by absorbance based assay; format: toxicity, cell-based, Ovis aries, Erythrocyte; details: sheep red blood cells, read-out: Activity
[21] = tested on: Pseudomonas aeruginosa; test: Synergistic antibacterial activity against multi-drug resistant Pseudomonas aeruginosa CCARM 2095 incubated for 24 hrs in presence of Oxacillin by broth microdilution method; format: functional
[22] = tested on: Salmonella typhimurium; test: Antibacterial activity against Salmonella typhimurium KCTC 1926 incubated for 24 hrs by CLSI based broth microdilution method; format: functional, Salmonella enterica subsp. enterica serovar Typhimurium; details: Salmonella enterica
[23] = tested on: Escherichia coli; test: Induction of cytoplasmic membrane potential in Escherichia coli KCTC 1682 at 0.5 to 1 times MIC measured for 500 secs by diSC3-5 dye based analysis; format: functional, organism-based; details: time 500.0 sec
[24] = tested on: Staphylococcus aureus; test: Synergistic antibacterial activity against methicillin-resistant Staphylococcus aureus CCARM 3089 assessed as fractional inhibitory concentration index by measuring ratio of MIC of compound in presence of Oxacillin to MIC to compound incubated for 24 hrs by broth microdilution method; format: functional
[25] = tested on: Escherichia coli; test: Induction of outer membrane permeabilization in Escherichia coli KCTC 1682 by NPN dye based analysis; format: functional, organism-based
[26] = tested on: RAW264.7; test: Anti-inflammatory activity in mouse RAW264.7 cells assessed as decrease in LPS-induced ROS production at 2.5 uM pretreated for 1 hr followed by LPS treatment for 16 hrs by DCFDA staining based analysis relative to control; format: functional; details: time 17 hrs
[27] = tested on: Enterococcus faecium; test: Antibacterial activity against vancomycin-resistant Enterococcus faecium ATCC 51559 incubated for 24 hrs by CLSI based broth microdilution method; format: functional
[28] = tested on: Escherichia coli; test: Induction of resistance development in Escherichia coli KCTC 1682 at 0.5 times MIC measured after 30 passages; format: functional, organism-based
[29] = tested on: Pseudomonas aeruginosa; test: Inhibition of biofilm formation in multi-drug resistant Pseudomonas aeruginosa CCARM 2095 at 4 to 8 uM by crystal violet staining based analysis relative to control; format: functional; details: dose 4-8 µM
[30] = tested on: Pseudomonas aeruginosa; test: Antibacterial activity against multi-drug resistant Pseudomonas aeruginosa CCARM 2095 incubated for 24 hrs by broth microdilution method; format: functional
[31] = tested on: Pseudomonas aeruginosa; test: Synergistic antibacterial activity against multi-drug resistant Pseudomonas aeruginosa CCARM 2095 assessed as fractional inhibitory concentration index by measuring ratio of MIC of compound in presence of Ciprofloxacin to MIC to compound incubated for 24 hrs by broth microdilution method; format: functional
[32] = tested on: Pseudomonas aeruginosa; test: Inhibition of biofilm formation in multi-drug resistant Pseudomonas aeruginosa CCARM 2095 at 1 to 128 uM by crystal violet staining based analysis; format: functional, organism-based; details: dose 1-128 µM
[33] = tested on: Acinetobacter baumannii; test: Antibacterial activity against carbapenem-resistant Acinetobacter baumannii NMS 1707 incubated for 24 hrs by CLSI based broth microdilution method; format: functional
[34] = tested on: Staphylococcus aureus; test: Synergistic antibacterial activity against methicillin-resistant Staphylococcus aureus CCARM 3089 assessed as fractional inhibitory concentration index incubated for 24 hrs in presence of Chloramphenicol by broth microdilution method; format: functional
[35] = tested on: Staphylococcus aureus; test: Synergistic antibacterial activity against methicillin-resistant Staphylococcus aureus CCARM 3089 assessed as MIC of Oxacillin incubated for 24 hrs by broth microdilution method; format: functional
[36] = tested on: Escherichia coli; test: Induction of inner membrane permeabilization in Escherichia coli KCTC 1682 at 0.5 times MIC by PI staining based flow cytometry (reference value: 1.51 %); format: functional
[37] = tested on: Staphylococcus aureus; test: Synergistic antibacterial activity against methicillin-resistant Staphylococcus aureus CCARM 3089 assessed as MIC of Ciprofloxacin incubated for 24 hrs by broth microdilution method; format: functional

Substance	inhibition at 5 µM [1]	MIC [2]	Activity [3]	MIC [4]	MIC [5]	FIC [6]	inhibition at 2.5 µM [7]	MIC [8]	fold change (FC) [9]	MIC [10]	fractional inhibitory concentration index (FICI) [11]	HC10 [12]	MIC [13]	Activity [14]	fractional inhibitory concentration index (FICI) [15]	MIC [16]	FIC [17]	FIC [18]	MIC [19]	hemolysis at 1 h, 256 µM [20]	also measured
H-GVFRLKKWLKKVKKWGK-NH2	51.1%	4 µM	Active	2 µM	8 µM	0.25	32.3%	4 µM	~ 5	8 µM	0.313	> 256 µM	16 µM	Active	0.375	8 µM	0.5	0.125	32 µM	9.1%	MIC [21]: 2 µM; MIC [22]: 8 µM; Activity [23]: Active; FIC [24]: 0.063; Activity [25]: Dose-dependent-effect; inhibition at 2.5 µM [26]: 38.2%; MIC [27]: 8 µM; Activity [28]: inactive; inhibition (INH) [29]: >50%; MIC [30]: 8 µM; FIC [31]: 0.5; Activity [32]: Active; Superior Activity Compared To Ll-37; MIC [33]: 4 µM; fractional inhibitory concentration index (FICI) [34]: 0.563; MIC [35]: 512 µM; Activity [36]: ~100%; MIC [37]: 512 µM
H-GVFRLKKWIKKVIKKWGK-NH2	40%	2 µM	Active	2 µM	8 µM	0.25	2.6%	4 µM	~ 5	8 µM	0.313	> 256 µM	16 µM	Active	0.375	8 µM	0.25	0.125	32 µM	8.9%	MIC [21]: 2 µM; MIC [22]: 4 µM; Activity [23]: Active; FIC [24]: 0.063; Activity [25]: Dose-dependent-effect; inhibition at 2.5 µM [26]: 14.9%; MIC [27]: 8 µM; Activity [28]: inactive; inhibition (INH) [29]: >50%; MIC [30]: 8 µM; FIC [31]: 0.5; Activity [32]: Active; Superior Activity Compared To Ll-37; MIC [33]: 4 µM; fractional inhibitory concentration index (FICI) [34]: 0.5; MIC [35]: 512 µM; Activity [36]: ~100%; MIC [37]: 512 µM
